# From US20090274642A1, “Hair Care Compositions for Preventing Oxidative Damage to Hair, Methods of Use, and Methods of Marketing Such Compositions” (priority 2008, published 2009)
# Tests used:
# Malassezia = experiment: Level of Malassezia after anti-dandruff actives delivered from shampoo; format: in vivo; conditions: 1% active in shampoo formulation, after two weeks of usage; FIG. 5
# Description: From left to right, the bars on the graph represent: 1% SeS2, 1% ZPT, 1% Climbazole, None (Control), 1% Platelet ZPT, 1SeS2, and 1% Ketoconazole.
# Malassezia cells = experiment: Amplex ultra red (AMP dye) fluorescence, Malassezia cells on unsaturated lipophilic substrate; format: cell-based; conditions: pH 5.5; ethoxyquin added to the mixture; FIG. 2
# [1] = Amplex assay, 10 μM H2O2 manually added to AMP dye; format: biochemical; conditions: 10 μM H2O2 added to AMP dye; pH=7.4; FIG. 3
# Description: FIG. 3 is a graph showing the amplex fluorescence signal produced when 10 μM H2O2 is manually added to AMP dye.
SMILES,level of Malassezia (Malassezia),fluorescence signal due to the action of Malassezia on substrate (Malassezia cells),amplex fluorescence signal produced by H2O2 [1]
[O-][n+]1ccccc1[S-].[O-][n+]1ccccc1[S-].[Zn+2] [Platelet ZPT],decreased level,,
CCOc1ccc2c(c1)C(C)=CC(C)(C)N2 [ethoxyquin],,quenched,quenched
"S=[Se]=S [SeS2, selenium sulfide]",decreased level,,
"CC(=O)N1CCN(c2ccc(OCC3COC(Cn4ccnc4)(c4ccc(Cl)cc4Cl)O3)cc2)CC1 (stereo not shown) [Ketoconazole, ketoconazole]",decreased level,,
"CC(C)(C)C(=O)C(Oc1ccc(Cl)cc1)n1ccnc1 (stereo not shown) [Climbazole, climbazole]",decreased level,,
"[O-]n1ccccc1=S.[O-]n1ccccc1=S.[Zn+2] [ZPT, zinc salt of 1-hydroxy-2-pyridinethione]",decreased level,,
